Test results as given in the supplement of paper PMC11061612.

How the values were obtained:
AZD7648 = compound: Cc1cc2ncnn2cc1Nc1ncc2c(n1)n(C1CCOCC1)c(=O)n2C [AZD7648]; details: max 10 µM
Procedure, shortened: (§1)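 Cancer cell lines were seeded in 1536-well plates in 7.5 μl DMEM/F12 or RPMI with 10% FBS, held 24 hours at 37°C and 5% CO2, then dosed for 72 hours (final DMSO typically 0.2%). Viability was read by CellTiter-Glo 2.0 luminescence and scaled between blank-well and DMSO-well means. The single-agent IC50 comes from dose responses fitted to a two-parameter logistic curve with a non-linear mixed effects model.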

AZD5363 = compound: C1CN(CCC1(C(=O)N[C@@H](CCO)C2=CC=C(C=C2)Cl)N)C3=NC=NC4=C3C=CN4 [AZD5363]; details: max 10 µM
Procedure, shortened: as §1

AZD2811 = compound: CCN(CCO)CCCOc1ccc2c(Nc3cc(CC(=O)Nc4cccc(F)c4)[nH]n3)ncnc2c1 [AZD2811]; details: max 1 µM
Procedure, shortened: as §1

AZD8186 = compound: C[C@@H](Nc1cc(F)cc(F)c1)c1cc(C(=O)N(C)C)cc2c(=O)cc(N3CCOCC3)oc12 [AZD8186]; details: max 10 µM
Procedure, shortened: as §1

SRA737 = compound: N#Cc1cnc(Nc2cc(NC[C@H]3CNCCO3)c(C(F)(F)F)cn2)cn1 [SRA737]; details: max 10 µM
Procedure, shortened: as §1

AZD0156 = compound: CN(C)CCCOc1ccc(-c2ccc3ncc4c(c3c2)n(C2CCOCC2)c(=O)n4C)cn1 [AZD0156]
Procedure, shortened: as §1

AZD5153 = compound: COc1nnc2ccc(N3CCC(c4ccc(OCCN5CCN(C)C(=O)[C@H]5C)cc4)CC3)nn12 [AZD5153]; details: max 1 µM
Procedure, shortened: as §1

AZD4320 = compound: CN(CC[C@H](CSC1=CC=CC=C1)NC2=C(C=C(C=C2)S(=O)(=O)NC(=O)C3=CC=C(C=C3)N4CCC(CC4)[C@H](C5=CC=CC=C5C6=CC=C(C=C6)Cl)O)S(=O)(=O)C(F)(F)F)CCO [AZD4320]; details: max 1 µM
Procedure, shortened: as §1

Etoposide = compound: COc1cc([C@@H]2c3cc4c(cc3[C@@H](O[C@@H]3O[C@@H]5CO[C@@H](C)O[C@H]5[C@H](O)[C@H]3O)[C@H]3COC(=O)[C@H]23)OCO4)cc(OC)c1O [Etoposide]; details: max 10 µM
Procedure, shortened: as §1

Gefitinib = compound: COc1cc2ncnc(Nc3ccc(F)c(Cl)c3)c2cc1OCCCN1CCOCC1 [Gefitinib]; details: max 10 µM
Procedure, shortened: as §1

5-Fluorouracil = compound: O=c1[nH]cc(F)c(=O)[nH]1 [5-Fluorouracil]; details: max 20 µM
Procedure, shortened: as §1

Prexasertib = compound: COc1cccc(OCCCN)c1-c1cc(Nc2cnc(C#N)cn2)n[nH]1 [Prexasertib]; details: max 1 µM
Procedure, shortened: as §1

Olaparib = compound: O=C(c1cc(Cc2n[nH]c(=O)c3ccccc23)ccc1F)N1CCN(C(=O)C2CC2)CC1 [Olaparib]; details: max 10 µM
Procedure, shortened: as §1

SN-38 = compound: CCc1c2c(nc3ccc(O)cc13)-c1cc3c(c(=O)n1C2)COC(=O)[C@]3(O)CC [SN-38]; details: max 0.3 µM
Procedure, shortened: as §1

Trametinib = compound: CC(=O)Nc1cccc(-n2c(=O)n(C3CC3)c(=O)c3c(Nc4ccc(I)cc4F)n(C)c(=O)c(C)c32)c1 [Trametinib]; details: max 1 µM
Procedure, shortened: as §1

Gemcitabine = compound: Nc1ccn([C@@H]2O[C@H](CO)[C@@H](O)C2(F)F)c(=O)n1 [Gemcitabine]; details: max 0.3 µM
Procedure, shortened: as §1

Taselisib = compound: Cc1nc(-c2cn3c(n2)-c2ccc(-c4cnn(C(C)(C)C(N)=O)c4)cc2OCC3)n(C(C)C)n1 [Taselisib]; details: max 10 µM
Procedure, shortened: as §1

Savolitinib = compound: C[C@@H](c1ccc2nccn2c1)n1nnc2ncc(-c3cnn(C)c3)nc21 [Savolitinib]; details: max 1 µM
Procedure, shortened: as §1

AZD5991 = compound: Cc1c2c(nn1C)CSCc1cc(n(C)n1)CSc1cc(c3ccccc3c1)OCCCc1c(C(=O)O)n(C)c3c-2c(Cl)ccc13 [AZD5991]; details: max 1 µM
Procedure, shortened: as §1

Lapatinib = compound: CS(=O)(=O)CCNCc1ccc(-c2ccc3ncnc(Nc4ccc(OCc5cccc(F)c5)c(Cl)c4)c3c2)o1 [Lapatinib]; details: max 10 µM
Procedure, shortened: as §1

Palbociclib = compound: CC(=O)c1c(C)c2cnc(Nc3ccc(N4CCNCC4)cn3)nc2n(C2CCCC2)c1=O [Palbociclib]; details: max 10 µM
Procedure, shortened: as §1

MK-2206 = compound: NC1(c2ccc(-c3nc4ccn5c(=O)[nH]nc5c4cc3-c3ccccc3)cc2)CCC1 [MK-2206]; details: max 10 µM
Procedure, shortened: as §1

Paclitaxel = compound: CC(=O)O[C@H]1C(=O)[C@@]2(C)[C@H]([C@H](OC(=O)c3ccccc3)[C@]3(O)C[C@H](OC(=O)[C@H](O)[C@@H](NC(=O)c4ccccc4)c4ccccc4)C(C)=C1C3(C)C)[C@]1(OC(C)=O)CO[C@@H]1C[C@@H]2O [Paclitaxel]; details: max 3 µM
Procedure, shortened: as §1

AZD6738 = compound: C[C@@H]1COCCN1C2=NC(=NC(=C2)C3(CC3)[S@](=N)(=O)C)C4=C5C=CNC5=NC=C4 [AZD6738]; details: max 10 µM
Procedure, shortened: as §1

Dasatinib = compound: CC1=C(C(=CC=C1)Cl)NC(=O)C2=CN=C(S2)NC3=CC(=NC(=N3)C)N4CCN(CC4)CCO [Dasatinib]; details: max 2 µM
Procedure, shortened: as §1

Venetoclax = compound: CC1(C)CCC(CN2CCN(c3ccc(C(=O)NS(=O)(=O)c4ccc(NCC5CCOCC5)c([N+](=O)[O-])c4)c(Oc4cnc5[nH]ccc5c4)c3)CC2)=C(c2ccc(Cl)cc2)C1 [Venetoclax]; details: max 1 µM
Procedure, shortened: as §1

[1] = compound: O=C(Nc1ccc2[nH]nc(-c3ccncc3)c2c1)[C@@H]1CCN(CC(=O)N2CCN(c3ccc(-c4ncccn4)cc3)CC2)C1; details: max 5 µM
Procedure, shortened: as §1

Doxorubicin = compound: COc1cccc2c1C(=O)c1c(O)c3c(c(O)c1C2=O)C[C@@](O)(C(=O)CO)C[C@@H]3O[C@H]1C[C@H](N)[C@H](O)[C@H](C)O1 [Doxorubicin]; details: max 1 µM
Procedure, shortened: as §1

Crizotinib = compound: C[C@@H](Oc1cc(-c2cnn(C3CCNCC3)c2)cnc1N)c1c(Cl)ccc(F)c1Cl [Crizotinib]; details: max 10 µM
Procedure, shortened: as §1

AZD1390 = compound: CC(C)n1c(=O)n(C)c2cnc3cc(F)c(-c4ccc(OCCCN5CCCCC5)nc4)cc3c21 [AZD1390]; details: max 0.3 µM
Procedure, shortened: as §1

AZD1775 = compound: C=CCn1c(=O)c2cnc(Nc3ccc(N4CCN(C)CC4)cc3)nc2n1-c1cccc(C(C)(C)O)n1 [AZD1775]
Procedure, shortened: as §1

Selumetinib = compound: Cn1cnc2c(F)c(Nc3ccc(Br)cc3Cl)c(C(=O)NOCCO)cc21 [Selumetinib]; details: max 10 µM
Procedure, shortened: as §1

SG3199 = compound: CC1=CN2[C@@H](C1)C=NC3=CC(=C(C=C3C2=O)OC)OCCCCCOC4=C(C=C5C(=C4)N=C[C@@H]6CC(=CN6C5=O)C)OC [SG3199]; details: max 0.001 µM
Procedure, shortened: as §1

Carboplatin = compound: C1CC(C1)(C(=O)[O-])C(=O)[O-].N.N.[Pt+2] [Carboplatin]; details: max 10 µM
Procedure, shortened: as §1

Alisertib = compound: COc1cc(Nc2ncc3c(n2)-c2ccc(Cl)cc2C(c2c(F)cccc2OC)=NC3)ccc1C(=O)O [Alisertib]; details: max 10 µM
Procedure, shortened: as §1

| Cell Line | IC50, cell viability 72 h (AZD7648) [nM] | IC50, cell viability 72 h (AZD5363) [nM] | IC50, cell viability 72 h (AZD2811) [nM] | IC50, cell viability 72 h (AZD8186) [nM] | IC50, cell viability 72 h (SRA737) [nM] | IC50, cell viability 72 h (AZD0156; max 3 µM) [nM] | IC50, cell viability 72 h (AZD5153) [nM] | IC50, cell viability 72 h (AZD4320) [nM] | IC50, cell viability 72 h (Etoposide) [nM] | IC50, cell viability 72 h (Gefitinib) [nM] | IC50, cell viability 72 h (5-Fluorouracil) [nM] | IC50, cell viability 72 h (Prexasertib) [nM] | IC50, cell viability 72 h (Olaparib) [nM] | IC50, cell viability 72 h (SN-38) [nM] | IC50, cell viability 72 h (Trametinib) [nM] | IC50, cell viability 72 h (Gemcitabine) [nM] | IC50, cell viability 72 h (Taselisib) [nM] | IC50, cell viability 72 h (Savolitinib) [nM] | IC50, cell viability 72 h (AZD5991) [nM] | IC50, cell viability 72 h (Lapatinib) [nM] | IC50, cell viability 72 h (Palbociclib) [nM] | IC50, cell viability 72 h (MK-2206) [nM] | IC50, cell viability 72 h (Paclitaxel) [nM] | IC50, cell viability 72 h (AZD6738) [nM] | IC50, cell viability 72 h (Dasatinib) [nM] | IC50, cell viability 72 h (Venetoclax) [nM] | IC50, cell viability 72 h [1] [nM] | IC50, cell viability 72 h (Doxorubicin) [nM] | IC50, cell viability 72 h (Crizotinib) [nM] | IC50, cell viability 72 h (AZD1390) [nM] | IC50, cell viability 72 h (AZD1775; max 3 µM) [nM] | IC50, cell viability 72 h (Selumetinib) [nM] | IC50, cell viability 72 h (SG3199) [nM] | IC50, cell viability 72 h (Carboplatin) [nM] | IC50, cell viability 72 h (Alisertib) [nM] | IC50, cell viability 72 h (AZD0156; max 1 µM) [nM] | IC50, cell viability 72 h (AZD1775; max 1 µM) [nM] |
| --- | --- | --- | --- | --- | --- | --- | --- | --- | --- | --- | --- | --- | --- | --- | --- | --- | --- | --- | --- | --- | --- | --- | --- | --- | --- | --- | --- | --- | --- | --- | --- | --- | --- | --- | --- | --- | --- |
| ME-180 (Cervical Carcinoma) | > 10000 | 2130 | > 1000 | > 10000 | > 10000 | > 3000 | > 1000 | > 1000 | 3730 | > 10000 | > 20000 | > 1000 | > 10000 | 15.8 | > 1000 | 130 | 734 | > 1000 | > 1000 | > 10000 | > 10000 | > 10000 | 141 | > 10000 | 1240 | > 1000 | > 5000 | > 1000 | > 10000 | > 300 | 1450 | > 10000 | > 1 | > 10000 | 9540 | – | – |
| ML-2 (Acute Myeloid Leukemia) | > 10000 | 5950 | 20.9 | > 10000 | 995 | > 3000 | 116 | 27.5 | 342 | > 10000 | 1550 | 4.33 | 8050 | 4.88 | 20.6 | 13.6 | 1530 | > 1000 | 62.6 | > 10000 | 2410 | > 10000 | 5.85 | 1780 | > 2000 | 118 | 290 | 70.3 | 1950 | > 300 | 243 | 381 | > 1 | > 10000 | 660 | – | – |
| MOG-G-UVW (Low Grade Glioma) | > 10000 | > 10000 | 344 | 9250 | > 10000 | > 3000 | 340 | > 1000 | 1600 | > 10000 | > 20000 | 26.5 | > 10000 | 11.7 | 148 | 27.3 | 3690 | > 1000 | > 1000 | > 10000 | > 10000 | > 10000 | 3 | 5120 | > 2000 | > 1000 | > 5000 | 156 | 4010 | > 300 | 582 | > 10000 | > 1 | > 10000 | 562 | – | – |
| MOLT-4 (T-Lymphoblastic Leukemia) | > 10000 | 4180 | 31.1 | > 10000 | 2310 | > 3000 | > 1000 | 93.1 | 123 | > 10000 | 12800 | 13.2 | > 10000 | 2.99 | > 1000 | 58.3 | 5930 | > 1000 | > 1000 | > 10000 | 7920 | 6710 | 6.6 | 1690 | > 2000 | > 1000 | > 5000 | 57 | 2110 | > 300 | 428 | > 10000 | > 1 | > 10000 | 37.6 | – | – |
| MV-4-11 (Acute Myeloid Leukemia) | > 10000 | 4430 | 20.6 | > 10000 | 1290 | – | 24.2 | 1.74 | 149 | 4160 | 939 | 17.1 | > 10000 | 2.99 | 70.3 | 3.43 | 7860 | > 1000 | 5.9 | > 10000 | 1000 | 7870 | 3.97 | 994 | > 2000 | 7.99 | 1350 | 33.1 | 1880 | > 300 | – | 3350 | > 1 | > 10000 | 35.5 | > 1000 | 503 |
